In PubChem BioAssay (NCI):
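Method: 48-hour compound exposure of cells in 96-well plates, five concentrations, linear interpolation of endpoints. Here, GI50 denotes the concentration required for 50% inhibition of growth. The concentration for full growth arrest is given as TGI.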

Legend:
Assay in all cases: inhibition of tumour cell growth, NCI panel, 48 h
COLO 205 colon = system: COLO 205 colon
HCC-2998 colon = system: HCC-2998 colon
K-562 leukemia = system: K-562 leukemia
LOX IMVI melanoma = system: LOX IMVI melanoma
OVCAR-4 ovarian = system: OVCAR-4 ovarian
RPMI-8226 leukemia = system: RPMI-8226 leukemia
SF-268 CNS = system: SF-268 CNS
SNB-19 CNS = system: SNB-19 CNS
U251 CNS = system: U251 CNS
CCRF-CEM leukemia = system: CCRF-CEM leukemia

SMILES	TGI (COLO 205 colon) [µM]	TGI (HCC-2998 colon) [µM]	TGI (K-562 leukemia) [µM]	TGI (LOX IMVI melanoma) [µM]	TGI (OVCAR-4 ovarian) [µM]	TGI (RPMI-8226 leukemia) [µM]	TGI (SF-268 CNS) [µM]	TGI (SNB-19 CNS) [µM]	TGI (U251 CNS) [µM]	GI50 (CCRF-CEM leukemia) [µM]	TGI (CCRF-CEM leukemia) [µM]	GI50 (COLO 205 colon) [µM]	GI50 (K-562 leukemia) [µM]	GI50 (LOX IMVI melanoma) [µM]	GI50 (OVCAR-4 ovarian) [µM]	GI50 (SF-268 CNS) [µM]	GI50 (SNB-19 CNS) [µM]	GI50 (U251 CNS) [µM]	GI50 (HCC-2998 colon) [µM]	GI50 (RPMI-8226 leukemia) [µM]
O=C(O)c1ccc(O)c(N=Nc2cc(S(=O)(=O)O)c3ccccc3c2O)c1	> 100	> 100	> 100	> 100	> 100	> 100	> 10	> 100	> 100											
O=C(O)c1ccc2c(c1Nc1ccccc1)C(=O)c1ccccc1C2=O	> 100		> 100	> 100	> 100		> 100	> 100	> 100	40.5	> 100	38.9	68.5	28.9	86.1	34.6	49.3	47		
O=c1c2ccccc2nc(-c2ccc(Br)cc2)n1NC1OC(CO)C(O)C(O)C1O (stereo unspecified)	> 100	> 100	> 100		> 100	> 100	> 100	> 100	> 100		> 100									
N=C1N(c2ccccc2)C(=O)C23CCCC2C13N1CCOCC1 (stereo unspecified)	> 100	> 100	> 100		> 100	> 100	> 100	> 100	> 100		> 100									
Cc1ccc([N+](=O)[O-])cc1NC(=O)C(=O)Cc1occc(=O)c1O	> 100	> 100	> 100	> 100		> 100	> 100	> 100	> 100		> 100									
NC(CNO)C(=O)O (stereo unspecified)	> 100			> 100	> 100	> 100	> 100	> 100	> 100											
COc1cc(/C=C/C(=O)c2ccc(Nc3ncnc4ccccc34)cc2)cc(OC)c1	39.8	3.38		4.16	25.2	0.715	12.2	83.2	6.75	4.04	22.8	9.59		1.85	4.28	3.06	9.99	2.24	1.79	0.227
COC(=O)C1=CN=C(C(=O)OC)NN1	> 100		> 100		> 100	> 100	> 100	> 100	> 100		> 100									
Cc1cc(C)c(O)c(Cc2cccc(Cc3cc(C)cc(C)c3O)c2O)c1	> 100		> 100	> 100	> 100	> 100	> 100	> 100	> 100		> 100									
Cc1oc2c(C)c(O)c3c(c2c1C1(C)OCCO1)C(=O)C=C(Cl)C3=O	> 100		> 100	> 100	> 100	> 100	> 100	> 100	> 100		> 100									
CCOC(=O)c1c(-c2ccccc2)[n+](=O)c2ccc(Cl)cc2n1[O-]	13.6		18.5	3.91	22.9	6.62	32.2	> 100	8.57			3.89	4.69	1.66	4.25	4.28	10.4	2.68		2.44
NC(=O)N/N=C(\C(=O)C(=O)Nc1ccc(Cl)c(C(F)(F)F)c1)c1nc2ccc(C(=O)c3ccccc3)cc2[nH]c1=O	> 100	> 100	> 100		> 100	> 100	> 100	> 100	> 100		> 100									
CCCCCCCC/C=C/CCCCCCCC1=NC(C)(C)CN1C(C)C	2.09	2.72	2.39		2.98		3.07	7.49	3			0.516	1.11		1.63	1.7	2.17	1.62	1.42	
Clc1cc(Cl)c(Cl)c(-c2nc(-c3cccnc3)cs2)c1	41.4		> 100	37.6	98.8	80.8	69.8	> 100	> 100	8.52	42	13.6	> 100	16	25.6	17.9	66.2	37.8		17.9
O=C(O)CC(Nc1ccccc1)C(=O)O (stereo unspecified)	> 100		> 100	> 100	> 100	> 100	> 100	> 100	> 100		> 100									
C#CCN=C(N/N=C/c1ccc([N+](=O)[O-])o1)NS(=O)(=O)c1cc(C)c(Cl)cc1SCC(N)=O	84.4		52.5	35.2	33.3	34.5	35.8	> 100	84.9	22.2	57.4	26.9	23.7	8.14	16.5	15	50.6	22.6		12.8
CC#CS(=O)(=O)c1ccccc1	24.7	13.9		21	11.7		35.2	27.2	25.5											
Oc1ccc(CNCc2ccccc2)c2cccnc12	> 72		> 100	> 100	> 100	0.768	> 65.6	> 100	2.77		0.343									
COC(=O)/C(C#N)=C1\CCC(O)N1C (stereo unspecified)		> 100	> 100	> 100	> 100	> 100	> 100	> 100	> 100		> 100									
COc1ccc2c(c1)CCc1c(-c3noc4c3CCc3cc(OC)ccc3-4)noc1-2	> 100	> 100	> 100	> 100	> 100	> 100	> 100	> 100	> 100											
